The results in this text go back to patent US20260356819A1, “OXOISOINDOLINYL-SUBSTITUTED […] DERIVATIVE AND USE THEREOF” (GLUETACS THERAPEUTICS (SHANGHAI) CO., LTD., priority 2023, published 2026).

Common to all, as to assay type: cell-based
What all share (details): compounds at 50 nM and 500 nM

The target in assay [1] is T1, WEE1 (Homo sapiens, UniProt P30291+Q96SW2).
T1 construct: The supernatant was aspirated as the extracted total cell protein; endogenous in cells; host or cells: human peripheral blood mononuclear cells (hPBMCs)
Put plainly: Western blot degradation of WEE1 in hPBMCs (24 h). As for the experimental part:
(§1) Conventional Western blot assay was performed to evaluate the effects of the compounds of the present disclosure on the expression of target proteins in cells. • (1) Cell Seeding and Protein Harvesting: Human peripheral blood mononuclear cells (hPBMCs) at a density of 1×10^6 cells/mL were thawed according to the PBMC Recovery Protocol (Milecell Biotechnologies Inc, Shanghai). The cells were then treated with the compounds of the present disclosure (including the compounds listed in Table 1, and the Examples 1-498 compounds) at concentrations of 50 nM and 500 nM. Controls included a negative control (DMSO) and a positive control (the commercial immunomodulatory drug lenalidomide), both processed following the identical experimental protocol as the compounds of the present disclosure. After 24 hours of compounds treatment, cells were harvested and lysed in RIPA protein lysate containing protease inhibitors on ice for 30 min, followed by centrifugation. The supernatant was aspirated as the extracted total cell protein. The protein concentration of the supernatant was determined using the conventional BCA (Bicinchoninic Acid) assay. • (2) To the collected supernatant, 5×SDS sample loading buffer was added, followed by denaturation at 95 °C for 5 minutes. The denatured samples were then separated by SDS-PAGE electrophoresis on a polyacrylamide gel. Proteins were transferred to a nitrocellulose membrane (0.45 μm NC membrane), blocked with blocking buffer at room temperature for 1 hour, and subjected to antibody incubation and development procedures according to the antibody manufacturer's instructions (Cell Signaling Technology).
(§2) Half-Maximal Degradation Concentration value (the drug concentration required for degrading proteins by 50%, abbreviated as DC50) reads method: comparing the grayscale values of Western blot bands from drug-treated samples with those from blank DMSO-treated controls, and identifying the drug concentration range at which the grayscale value is half that of the DMSO-treated control bands.
(§3) DC50 values can be calculated using ImageJ software to measure grayscale values of Western blot bands from drug-treated samples. The concentration-response curve is fitted to estimate the drug concentration corresponding to half the grayscale value.
(§4) Target protein remaining (%) refers to the percentage of target protein remaining in cells after treatment with protein degrader compounds.
(§5) Calculation method for target protein remaining (%): Use ImageJ software to measure grayscale values of Western blot bands from drug (protein degrader)-treated samples. The grayscale value of drug-treated bands is divided by that of internal control protein bands, and the resulting quotient is normalized to obtain the relative percentage of remaining target protein after protein degrader treatment.
(§6) Target protein degradation rate (%)=1−target protein remaining (%).

The target in assay [2] is T2, GSPT1 (Homo sapiens, UniProt P15170+Q96SW2).
T2 construct: The supernatant was aspirated as the extracted total cell protein; endogenous in cells; host or cells: human peripheral blood mononuclear cells (hPBMCs)
T2 sequence (P15170 whole entry): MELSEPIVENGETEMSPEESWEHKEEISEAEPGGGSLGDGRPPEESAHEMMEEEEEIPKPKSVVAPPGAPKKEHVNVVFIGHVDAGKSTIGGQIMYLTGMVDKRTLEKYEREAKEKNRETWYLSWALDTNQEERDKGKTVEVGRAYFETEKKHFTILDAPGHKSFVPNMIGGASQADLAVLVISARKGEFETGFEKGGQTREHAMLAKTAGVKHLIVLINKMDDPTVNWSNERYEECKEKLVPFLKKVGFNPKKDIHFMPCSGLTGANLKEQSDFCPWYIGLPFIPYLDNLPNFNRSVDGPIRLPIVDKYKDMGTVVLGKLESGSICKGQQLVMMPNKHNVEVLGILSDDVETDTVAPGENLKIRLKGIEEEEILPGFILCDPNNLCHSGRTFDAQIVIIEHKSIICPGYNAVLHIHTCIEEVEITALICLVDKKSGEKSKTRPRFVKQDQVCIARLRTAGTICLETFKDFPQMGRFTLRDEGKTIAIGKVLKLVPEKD
T2 sequence (Q96SW2 whole entry): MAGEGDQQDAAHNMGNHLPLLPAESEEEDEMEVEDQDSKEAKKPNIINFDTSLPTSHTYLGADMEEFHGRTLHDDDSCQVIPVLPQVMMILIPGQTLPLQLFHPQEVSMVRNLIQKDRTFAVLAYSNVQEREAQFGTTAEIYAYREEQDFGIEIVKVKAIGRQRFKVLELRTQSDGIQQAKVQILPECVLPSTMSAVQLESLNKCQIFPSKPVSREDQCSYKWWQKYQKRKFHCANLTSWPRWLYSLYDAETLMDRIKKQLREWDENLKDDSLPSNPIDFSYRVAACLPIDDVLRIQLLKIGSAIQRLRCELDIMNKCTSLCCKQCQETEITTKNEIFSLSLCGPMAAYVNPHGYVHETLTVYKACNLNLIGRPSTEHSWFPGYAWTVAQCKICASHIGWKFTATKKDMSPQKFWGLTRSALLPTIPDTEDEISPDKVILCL
T2 sequence (Q16531 whole entry partner): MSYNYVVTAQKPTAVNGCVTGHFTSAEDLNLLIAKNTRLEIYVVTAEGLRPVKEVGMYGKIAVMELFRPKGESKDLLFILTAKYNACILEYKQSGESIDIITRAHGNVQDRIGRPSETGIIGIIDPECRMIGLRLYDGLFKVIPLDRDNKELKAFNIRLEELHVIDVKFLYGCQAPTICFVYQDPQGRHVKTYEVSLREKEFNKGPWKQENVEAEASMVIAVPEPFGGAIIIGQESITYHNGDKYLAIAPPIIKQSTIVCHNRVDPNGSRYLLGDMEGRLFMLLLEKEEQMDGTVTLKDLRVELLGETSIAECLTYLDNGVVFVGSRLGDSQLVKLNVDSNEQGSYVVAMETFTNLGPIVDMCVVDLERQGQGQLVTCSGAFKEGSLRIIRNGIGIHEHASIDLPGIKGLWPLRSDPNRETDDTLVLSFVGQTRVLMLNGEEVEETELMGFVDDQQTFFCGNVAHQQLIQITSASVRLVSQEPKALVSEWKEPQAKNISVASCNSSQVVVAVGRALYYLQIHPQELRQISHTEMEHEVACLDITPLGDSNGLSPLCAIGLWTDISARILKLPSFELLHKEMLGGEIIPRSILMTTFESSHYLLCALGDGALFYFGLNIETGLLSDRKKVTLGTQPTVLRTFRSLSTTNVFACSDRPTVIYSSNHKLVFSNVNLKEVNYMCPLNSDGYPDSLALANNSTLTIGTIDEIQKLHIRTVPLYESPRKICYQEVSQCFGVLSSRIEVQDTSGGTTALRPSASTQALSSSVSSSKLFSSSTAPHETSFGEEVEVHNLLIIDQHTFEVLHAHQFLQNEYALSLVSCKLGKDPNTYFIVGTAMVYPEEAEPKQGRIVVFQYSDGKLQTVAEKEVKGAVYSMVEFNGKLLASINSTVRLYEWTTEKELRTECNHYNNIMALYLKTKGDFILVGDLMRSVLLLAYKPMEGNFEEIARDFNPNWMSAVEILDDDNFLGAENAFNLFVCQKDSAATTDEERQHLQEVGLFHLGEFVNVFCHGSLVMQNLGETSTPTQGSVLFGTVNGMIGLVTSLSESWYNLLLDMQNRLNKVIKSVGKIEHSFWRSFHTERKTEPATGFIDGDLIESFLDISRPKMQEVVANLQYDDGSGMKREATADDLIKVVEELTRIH
Briefly: Western blot degradation of GSPT1 in hPBMCs (24 h). As for the experimental part:
as §1, §2, §3, §4, §5, §6

The target of assay [3] is T3, IKZF1 (Homo sapiens, UniProt Q13422+Q96SW2).
T3 construct: The supernatant was aspirated as the extracted total cell protein; endogenous in cells; host or cells: human peripheral blood mononuclear cells (hPBMCs)
T3 sequence (Q13422 whole entry): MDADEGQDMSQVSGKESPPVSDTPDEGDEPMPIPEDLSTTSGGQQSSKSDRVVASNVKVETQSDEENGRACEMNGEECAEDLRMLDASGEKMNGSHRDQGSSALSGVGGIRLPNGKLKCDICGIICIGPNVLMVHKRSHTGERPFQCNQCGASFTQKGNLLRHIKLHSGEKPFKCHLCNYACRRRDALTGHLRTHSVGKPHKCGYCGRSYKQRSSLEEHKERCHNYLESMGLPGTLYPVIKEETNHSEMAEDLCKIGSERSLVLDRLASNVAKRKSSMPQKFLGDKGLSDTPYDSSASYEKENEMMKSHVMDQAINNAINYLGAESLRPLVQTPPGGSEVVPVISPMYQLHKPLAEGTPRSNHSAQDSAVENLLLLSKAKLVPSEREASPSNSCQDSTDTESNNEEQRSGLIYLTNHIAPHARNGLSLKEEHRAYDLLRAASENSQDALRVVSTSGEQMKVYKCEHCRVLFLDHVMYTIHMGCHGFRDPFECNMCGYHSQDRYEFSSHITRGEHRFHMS
T3 sequence (Q96SW2 whole entry): as the sequence (Q96SW2 whole entry) above
T3 sequence (Q16531 whole entry partner): as the sequence (Q16531 whole entry partner) above
Briefly: Western blot degradation of IKZF1 in hPBMCs (24 h). As for the experimental part: as §1, §2, §3, §4, §5, §6

The target of assay [4] is T4, IKZF2 (Homo sapiens, UniProt Q96SW2+Q9UKS7).
T4 construct: The supernatant was aspirated as the extracted total cell protein; endogenous in cells; host or cells: human peripheral blood mononuclear cells (hPBMCs)
T4 sequence (Q9UKS7 whole entry): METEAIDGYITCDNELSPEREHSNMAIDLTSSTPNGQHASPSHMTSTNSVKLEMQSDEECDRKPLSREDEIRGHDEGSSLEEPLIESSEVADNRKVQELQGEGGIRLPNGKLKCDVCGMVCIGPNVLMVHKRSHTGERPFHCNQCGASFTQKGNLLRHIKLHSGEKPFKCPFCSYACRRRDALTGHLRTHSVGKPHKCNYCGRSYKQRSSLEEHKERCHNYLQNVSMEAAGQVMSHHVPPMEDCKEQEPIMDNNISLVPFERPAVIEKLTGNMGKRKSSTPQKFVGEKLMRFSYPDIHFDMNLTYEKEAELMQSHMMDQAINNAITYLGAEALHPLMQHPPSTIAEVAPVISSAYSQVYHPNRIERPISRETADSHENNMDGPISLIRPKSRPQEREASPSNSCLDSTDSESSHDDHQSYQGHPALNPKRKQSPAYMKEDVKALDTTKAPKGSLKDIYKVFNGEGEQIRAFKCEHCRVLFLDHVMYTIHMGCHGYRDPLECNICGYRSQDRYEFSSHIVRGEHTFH
T4 sequence (Q96SW2 whole entry): as the sequence (Q96SW2 whole entry) above
T4 sequence (Q16531 whole entry partner): as the sequence (Q16531 whole entry partner) above
Briefly: Western blot degradation of IKZF2 in hPBMCs (24 h). As for the experimental part:
as §1, §2, §3, §4, §5, §6

The target of assay [5] is T5, CK1α (Homo sapiens, UniProt P48729+Q96SW2).
T5 construct: The supernatant was aspirated as the extracted total cell protein; endogenous in cells; host or cells: human peripheral blood mononuclear cells (hPBMCs)
T5 sequence (P48729 whole entry): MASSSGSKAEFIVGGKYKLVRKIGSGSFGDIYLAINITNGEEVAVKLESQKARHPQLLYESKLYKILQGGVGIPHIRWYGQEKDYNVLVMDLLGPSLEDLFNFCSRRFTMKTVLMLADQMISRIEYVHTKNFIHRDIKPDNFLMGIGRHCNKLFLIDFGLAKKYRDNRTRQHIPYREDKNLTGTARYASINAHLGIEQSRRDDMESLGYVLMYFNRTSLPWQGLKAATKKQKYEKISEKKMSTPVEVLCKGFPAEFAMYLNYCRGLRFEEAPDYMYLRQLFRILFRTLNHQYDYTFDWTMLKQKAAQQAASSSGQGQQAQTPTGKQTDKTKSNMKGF
T5 sequence (Q96SW2 whole entry): as the sequence (Q96SW2 whole entry) above
T5 sequence (Q16531 whole entry partner): as the sequence (Q16531 whole entry partner) above
Briefly: Western blot degradation of CK1α in hPBMCs (24 h). As for the experimental part:
as §1, §2, §3, §4, §5, §6

Assay [6] deals with T6, IKZF3 (Homo sapiens, UniProt Q96SW2+Q9UKT9).
T6 construct: The supernatant was aspirated as the extracted total cell protein; endogenous in cells; host or cells: human peripheral blood mononuclear cells (hPBMCs)
T6 sequence (Q9UKT9 whole entry): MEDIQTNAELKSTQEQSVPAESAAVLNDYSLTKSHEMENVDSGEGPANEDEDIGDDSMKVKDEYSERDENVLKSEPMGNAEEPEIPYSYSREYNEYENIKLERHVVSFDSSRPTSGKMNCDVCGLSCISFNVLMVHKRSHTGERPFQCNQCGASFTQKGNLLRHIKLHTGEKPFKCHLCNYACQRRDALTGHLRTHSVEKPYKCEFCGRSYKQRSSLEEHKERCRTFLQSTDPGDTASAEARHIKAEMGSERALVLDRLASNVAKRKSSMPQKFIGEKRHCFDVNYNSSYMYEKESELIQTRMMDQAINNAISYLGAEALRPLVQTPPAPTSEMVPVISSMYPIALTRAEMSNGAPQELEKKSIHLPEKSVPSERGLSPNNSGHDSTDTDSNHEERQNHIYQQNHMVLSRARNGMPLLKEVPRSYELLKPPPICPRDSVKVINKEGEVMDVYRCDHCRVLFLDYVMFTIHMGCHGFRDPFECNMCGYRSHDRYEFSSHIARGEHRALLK
T6 sequence (Q96SW2 whole entry): as the sequence (Q96SW2 whole entry) above
T6 sequence (Q16531 whole entry partner): as the sequence (Q16531 whole entry partner) above
Briefly: Western blot degradation of IKZF3 in hPBMCs (24 h). As for the experimental part: as §1, §2, §3, §4, §5, §6

In the case of `O=C1CCN(N2C(=O)c3ccc(CN4CCN(c5cccc(Cl)c5Cl)CC4)cc3C2=O)C(=O)N1` [GT-04854, 5-((4-(2,3-dichlorophenyl)piperazin-1-yl)methyl)-2-(2,4-dioxotetrahydropyrimidin-1(2H)-yl)isoindoline-1,3-dione], the “WEE1 substrate protein remaining %” value in assay [1] was “A (0% ≤ substrate protein remaining % ≤80%)”. Moreover, in assay [2], the “GSPT1 substrate protein remaining %” value is reported as “A (0% ≤ substrate protein remaining % ≤80%)”. Also, the “IKZF1 substrate protein remaining %” value in assay [3] is “A (0% ≤ substrate protein remaining % ≤80%)”. Moreover, the “IKZF2 substrate protein remaining %” value in assay [4] is given as “A (0% ≤ substrate protein remaining % ≤80%)”. Further, the “CK1α substrate protein remaining %” value in assay [5] is “B (80%< substrate protein remaining % ≤100%)”. The “IKZF3 substrate protein remaining %” value in assay [6] is “B (80%< substrate protein remaining % ≤100%)”.
As for `O=C1CCN(N2Cc3cc(CN4CCC(c5noc6cc(F)ccc56)CC4)ccc3C2=O)C(=O)N1` [GT-04864, 1-(5-((4-(6-fluorobenzo[d]isoxazol-3-yl)piperidin-1-yl)methyl)-1-oxoisoindolin-2-yl)dihydropyrimidine-2,4(1H,3H)-dione], the “WEE1 substrate protein remaining %” value in assay [1] is reported as “B (80%< substrate protein remaining % ≤100%)”. Moreover, the “GSPT1 substrate protein remaining %” value in assay [2] is given as “A (0% ≤ substrate protein remaining % ≤80%)”. Further, the “IKZF1 substrate protein remaining %” value in assay [3] is reported as “A (0% ≤ substrate protein remaining % ≤80%)”. In addition, the “IKZF2 substrate protein remaining %” value in assay [4] was “B (80%< substrate protein remaining % ≤100%)”. The “CK1α substrate protein remaining %” value in assay [5] is recorded as “B (80%< substrate protein remaining % ≤100%)”. In assay [6], the “IKZF3 substrate protein remaining %” value was “B (80%< substrate protein remaining % ≤100%)”.
On to `O=C1CCN(N2Cc3cc(CN4CCN(c5nsc6ccccc56)CC4)ccc3C2=O)C(=O)N1` [GT-04865, 1-(5-((4-(benzo[d]isothiazol-3-yl)piperazin-1-yl)methyl)-1-oxoisoindolin-2-yl)dihydropyrimidine-2,4(1H,3H)-dione], for which the “WEE1 substrate protein remaining %” value in assay [1] is recorded as “B (80%< substrate protein remaining % ≤100%)”. In addition, the “GSPT1 substrate protein remaining %” value in assay [2] is reported as “A (0% ≤ substrate protein remaining % ≤80%)”. Besides, the “IKZF1 substrate protein remaining %” value in assay [3] is “A (0% ≤ substrate protein remaining % ≤80%)”. In assay [4], the “IKZF2 substrate protein remaining %” value was “B (80%< substrate protein remaining % ≤100%)”. Also, the “CK1α substrate protein remaining %” value in assay [5] is “B (80%< substrate protein remaining % ≤100%)”. Moreover, the “IKZF3 substrate protein remaining %” value in assay [6] was “B (80%< substrate protein remaining % ≤100%)”.
As to `O=C1CCN(N2Cc3cc(CN4CCN(C(c5ccccc5)c5ccncc5)CC4)ccc3C2=O)C(=O)N1` (stereo not shown) [GT-04891, 1-(1-oxo-5-((4-(phenyl(pyridin-4-yl)methyl)piperazin-1-yl)methyl)isoindolin-2-yl)dihydropyrimidine-2,4(1H,3H)-dione], the “WEE1 substrate protein remaining %” value in assay [1] is given as “B (80%< substrate protein remaining % ≤100%)”. Further, in assay [2], the “GSPT1 substrate protein remaining %” value is recorded as “A (0% ≤ substrate protein remaining % ≤80%)”. Further, the “IKZF1 substrate protein remaining %” value in assay [3] is given as “A (0% ≤ substrate protein remaining % ≤80%)”. Besides, in assay [4], the “IKZF2 substrate protein remaining %” value was “A (0% ≤ substrate protein remaining % ≤80%)”. Moreover, in assay [5], the “CK1α substrate protein remaining %” value is given as “B (80%< substrate protein remaining % ≤100%)”. For the same molecule, the “IKZF3 substrate protein remaining %” value in assay [6] is on record as “B (80%< substrate protein remaining % ≤100%)”.
As for `O=C1CCN(N2Cc3cc(CN4CCN(C(c5ccc(Cl)cc5)c5ccc(Cl)cc5)CC4)ccc3C2=O)C(=O)N1` [GT-04895, 1-(5-((4-(bis(4-chlorophenyl)methyl)piperazin-1-yl)methyl)-1-oxoisoindolin-2-yl)dihydropyrimidine-2,4(1H,3H)-dione], the “WEE1 substrate protein remaining %” value in assay [1] is “B (80%< substrate protein remaining % ≤100%)”. The “GSPT1 substrate protein remaining %” value in assay [2] is “A (0% ≤ substrate protein remaining % ≤80%)”. Further, the “IKZF1 substrate protein remaining %” value in assay [3] is “A (0% ≤ substrate protein remaining % ≤80%)”. The “IKZF2 substrate protein remaining %” value in assay [4] is recorded as “A (0% ≤ substrate protein remaining % ≤80%)”. In addition, the “CK1α substrate protein remaining %” value in assay [5] is reported as “B (80%< substrate protein remaining % ≤100%)”. In assay [6], the “IKZF3 substrate protein remaining %” value is on record as “B (80%< substrate protein remaining % ≤100%)”.
As to `O=C1CCN(N2Cc3cc(CN4C[C@@H]5C[C@H]4CN5C(c4ccccc4)c4ccccc4)ccc3C2=O)C(=O)N1` [GT-04938, 1-(5-(((1S,4S)-5-benzhydryl-2,5-diazabicyclo[2.2.1]heptan-2-yl)methyl)-1-oxoisoindolin-2-yl)dihydropyrimidine-2,4(1H,3H)-dione], the “WEE1 substrate protein remaining %” value in assay [1] is “A (0% ≤ substrate protein remaining % ≤80%)”. The “GSPT1 substrate protein remaining %” value in assay [2] was “A (0% ≤ substrate protein remaining % ≤80%)”. For the same molecule, the “IKZF1 substrate protein remaining %” value in assay [3] was “B (80%< substrate protein remaining % ≤100%)”. In assay [4], the “IKZF2 substrate protein remaining %” value was “A (0% ≤ substrate protein remaining % ≤80%)”. Further, the “CK1α substrate protein remaining %” value in assay [5] was “B (80%< substrate protein remaining % ≤100%)”. Moreover, the “IKZF3 substrate protein remaining %” value in assay [6] is reported as “B (80%< substrate protein remaining % ≤100%)”.
For the molecule `O=C1CCN(N2Cc3cc(CN4CCN(c5cccs5)CC4)ccc3C2=O)C(=O)N1` [GT-05073, 1-(1-oxo-5-((4-(thiophen-2-yl)piperazin-1-yl)methyl)isoindolin-2-yl)dihydropyrimidine-2,4(1H,3H)-dione], the “WEE1 substrate protein remaining %” value in assay [1] was “B (80%< substrate protein remaining % ≤100%)”. Moreover, the “GSPT1 substrate protein remaining %” value in assay [2] is on record as “B (80%< substrate protein remaining % ≤100%)”. For the same molecule, the “IKZF1 substrate protein remaining %” value in assay [3] is given as “B (80%< substrate protein remaining % ≤100%)”. Moreover, the “IKZF2 substrate protein remaining %” value in assay [4] is reported as “B (80%< substrate protein remaining % ≤100%)”. The “CK1α substrate protein remaining %” value in assay [5] is on record as “B (80%< substrate protein remaining % ≤100%)”. Further, the “IKZF3 substrate protein remaining %” value in assay [6] is given as “A (0% ≤ substrate protein remaining % ≤80%)”.
With `Cc1ccc(N2CCN(Cc3ccc4c(c3)CN(N3CCC(=O)NC3=O)C4=O)CC2)s1` [GT-05083, 1-(5-((4-(5-methylthiophen-2-yl)piperazin-1-yl)methyl)-1-oxoisoindolin-2-yl)dihydropyrimidine-2,4(1H,3H)-dione], the “WEE1 substrate protein remaining %” value in assay [1] was “B (80%< substrate protein remaining % ≤100%)”. For the same molecule, the “GSPT1 substrate protein remaining %” value in assay [2] is given as “B (80%< substrate protein remaining % ≤100%)”. Also, the “IKZF1 substrate protein remaining %” value in assay [3] is listed as “B (80%< substrate protein remaining % ≤100%)”. Besides, the “IKZF2 substrate protein remaining %” value in assay [4] was “A (0% ≤ substrate protein remaining % ≤80%)”. For the same molecule, in assay [5], the “CK1α substrate protein remaining %” value is “B (80%< substrate protein remaining % ≤100%)”. Also, the “IKZF3 substrate protein remaining %” value in assay [6] was “B (80%< substrate protein remaining % ≤100%)”.
Take `Cc1ccsc1N1CCN(Cc2ccc3c(c2)CN(N2CCC(=O)NC2=O)C3=O)CC1` [GT-05084, 1-(5-((4-(3-methylthiophen-2-yl)piperazin-1-yl)methyl)-1-oxoisoindolin-2-yl)dihydropyrimidine-2,4(1H,3H)-dione]: in assay [1], the “WEE1 substrate protein remaining %” value was “B (80%< substrate protein remaining % ≤100%)”. The “GSPT1 substrate protein remaining %” value in assay [2] is listed as “B (80%< substrate protein remaining % ≤100%)”. Also, the “IKZF1 substrate protein remaining %” value in assay [3] is listed as “B (80%< substrate protein remaining % ≤100%)”. The “IKZF2 substrate protein remaining %” value in assay [4] is recorded as “A (0% ≤ substrate protein remaining % ≤80%)”. Besides, the “CK1α substrate protein remaining %” value in assay [5] is “B (80%< substrate protein remaining % ≤100%)”. For the same molecule, the “IKZF3 substrate protein remaining %” value in assay [6] is given as “B (80%< substrate protein remaining % ≤100%)”.
`O=C1CCN(N2Cc3cc(CN4CCN(c5cccc(C(F)(F)F)n5)CC4)ccc3C2=O)C(=O)N1` [GT-05175, 1-(1-oxo-5-((4-(6-(trifluoromethyl)pyridin-2-yl)piperazin-1-yl)methyl)isoindolin-2-yl)dihydropyrimidine-2,4(1H,3H)-dione]: in assay [1], the “WEE1 substrate protein remaining %” value is reported as “A (0% ≤ substrate protein remaining % ≤80%)”. In addition, the “GSPT1 substrate protein remaining %” value in assay [2] was “A (0% ≤ substrate protein remaining % ≤80%)”. The “IKZF1 substrate protein remaining %” value in assay [3] is given as “B (80%< substrate protein remaining % ≤100%)”. The “IKZF2 substrate protein remaining %” value in assay [4] is given as “B (80%< substrate protein remaining % ≤100%)”.
